The values below come from patent US9598423B2 (BRISTOL-MYERS SQUIBB COMPANY, priority 2013, dated 2017).

The IC50 is the point on the concentration scale where inhibition reaches its midpoint.

Chain of CK1δ (P48730 whole entry): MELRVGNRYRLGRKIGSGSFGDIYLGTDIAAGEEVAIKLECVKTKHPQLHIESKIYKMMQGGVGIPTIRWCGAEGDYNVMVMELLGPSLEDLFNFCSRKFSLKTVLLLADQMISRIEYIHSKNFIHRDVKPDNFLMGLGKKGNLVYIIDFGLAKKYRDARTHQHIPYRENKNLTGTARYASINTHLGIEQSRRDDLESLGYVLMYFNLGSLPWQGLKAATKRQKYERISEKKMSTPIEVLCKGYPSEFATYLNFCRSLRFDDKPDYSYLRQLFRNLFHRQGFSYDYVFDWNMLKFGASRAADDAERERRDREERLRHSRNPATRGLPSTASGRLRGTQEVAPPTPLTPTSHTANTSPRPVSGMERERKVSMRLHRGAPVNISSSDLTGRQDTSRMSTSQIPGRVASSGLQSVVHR

In one test the target is CK1δ (Homo sapiens (Human), UniProt P48730). Put plainly: CK1δ kinase assay (Caliper LABCHIP electrophoretic separation of fluoresceinated peptide substrate and product). Format: biochemical. The note with it: 200 pM CK1δ, 50 μM ATP, 1.5 μM peptide substrate, 22 hours at room temperature; read-out: CK1δ (IC50). How it is done:
(§1) CK1ε and CK1δ Kinase Assays
(§2) The kinase assay was performed in V-bottom 384-well plates. […] The reaction was incubated at room temperature for 22 hours and terminated by adding 45 μl of 35 mM EDTA to each sample. The reaction mixture was analyzed on the Caliper LABCHIP®3000 (Caliper, Hopkinton, Mass.) by electrophoretic separation of the unphosphorylated substrate and phosphorylated product. […] Compounds were dissolved at 10 mM in dimethylsulfoxide (DMSO) and evaluated at eleven concentrations. IC50 values were derived by non-linear regression analysis.
As for `NC(=O)c1c(-c2cccc(F)c2)nn2c1CN(C(=O)Nc1ccnc(Cl)c1)CC2` [Compound 90, N^5-(2-Chloropyridin-4-yl)-2-(3-fluorophenyl)-6,7-dihydropyrazolo[1,5-a]pyrazine-3,5(4H)-dicarboxamide], the IC50 fell in the range of 0.01 to 10 nM.

Consider `Cc1ccc(NC(=O)N2CCn3nc(-c4cccc(F)c4)c(C(N)=O)c3C2)cn1` [Compound 86, 2-(3-Fluorophenyl)-N^5-(6-methylpyridin-3-yl)-6,7-dihydropyrazolo[1,5-a]pyrazine-3,5(4H)-dicarboxamide], for which the concentration for half-maximal inhibition (IC50) is 0.01 to 10 nM.

Turning to `NC(=O)c1c(-c2cccc(F)c2)nn2c1CN(C(=O)Nc1ccc(F)c(F)c1)CC2` [Compound 29, N^5-(3,4-Difluorophenyl)-2-(3-fluorophenyl)-6,7-dihydropyrazolo[1,5-a]pyrazine-3,5(4H)-dicarboxamide], the IC50 was 0.01 to 10 nM.

On to `NC(=O)c1c(-c2cccc(F)c2)nn2c1CN(C(=O)Nc1cncnc1)CC2` [Compound 84, 2-(3-Fluorophenyl)-N^5-(pyrimidin-5-yl)-6,7-dihydropyrazolo[1,5-a]pyrazine-3,5(4H)-dicarboxamide], for which the IC50 fell in the range of 0.01 to 10 nM.

Take `COc1ccc(NC(=O)N2CCn3nc(-c4cccc(F)c4)c(C(N)=O)c3C2)cc1OC` [Compound 66, N^5-(3,4-Dimethoxyphenyl)-2-(3-fluorophenyl)-6,7-dihydropyrazolo[1,5-a]pyrazine-3,5(4H)-dicarboxamide]: the IC50 was 0.01 to 10 nM.

Turning to `NC(=O)c1c(-c2ccc(F)cc2)nn2c1CN(C(=O)NC1CCCCC1)CC2` [Compound 3, N^5-Cyclohexyl-2-(4-fluorophenyl)-6,7-dihydropyrazolo[1,5-a]pyrazine-3,5(4H)-dicarboxamide], the IC50 was in the range of 0.01 to 10 nM.

In the next test the target is CK1ε (Homo sapiens (Human), UniProt P49674). Put plainly: CK1ε kinase assay (Caliper LABCHIP electrophoretic separation of fluoresceinated peptide substrate and product). It counts as biochemical. The note with it: 200 pM CK1ε, 50 μM ATP, 1.5 μM peptide substrate, 22 hours at room temperature; read-out: CK1ε (IC50). How it is done: as §1, §2
Chain of CK1ε (P49674 whole entry): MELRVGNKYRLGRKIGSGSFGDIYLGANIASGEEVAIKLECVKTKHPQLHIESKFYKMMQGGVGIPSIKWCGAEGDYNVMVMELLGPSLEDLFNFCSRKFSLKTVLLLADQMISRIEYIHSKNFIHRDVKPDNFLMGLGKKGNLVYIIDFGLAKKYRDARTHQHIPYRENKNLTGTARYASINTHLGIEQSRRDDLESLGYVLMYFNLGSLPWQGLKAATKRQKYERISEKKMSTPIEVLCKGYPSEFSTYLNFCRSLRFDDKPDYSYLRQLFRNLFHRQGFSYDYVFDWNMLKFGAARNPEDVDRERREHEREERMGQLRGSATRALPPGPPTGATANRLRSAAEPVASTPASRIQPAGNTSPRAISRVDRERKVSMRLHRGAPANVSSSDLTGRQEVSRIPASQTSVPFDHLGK
Consider `N#Cc1ccc(NC(=O)N2Cc3c(C(N)=O)c(-c4ccc(F)c(Cl)c4)nn3[C@H](CF)C2)cc1F` [Compound A16, (S)-2-(3-Chloro-4-fluorophenyl)-N^5-(4-cyano-3-fluorophenyl)-7-(fluoromethyl)-6,7-dihydropyrazolo[1,5-a]pyrazine-3,5(4H)-dicarboxamide], for which the IC50 was 0.01 to 10 nM.

In the case of `NC(=O)c1c(-c2cccc(F)c2)nn2c1CN(C(=O)NC13C[C@@H]4CC1C[C@@H](C4)C3)CC2` [Compound 23, 2-(3-Fluorophenyl)-N^5-((2R,5S)-octahydro-2,5-methanopentalen-6a-yl)-6,7-dihydropyrazolo[1,5-a]pyrazine-3,5(4H)-dicarboxamide], the IC50 was 0.01 to 10 nM.

As for `CN(C)c1cc(Cl)cc(-c2nn3c(c2C(N)=O)CN(C(=O)Nc2ccc(C#N)c(F)c2)CC3)c1` [Compound 269, 2-(3-Chloro-5-(dimethylamino)phenyl)-N^5-(4-cyano-3-fluorophenyl)-6,7-dihydropyrazolo[1,5-a] pyrazine-3,5(4H)-dicarboxamide], the concentration for half-maximal inhibition (IC50) was 0.01 to 10 nM.

For the compound `N#Cc1ccc(NC(=O)N2CCn3nc(-c4cc(Cl)c5ocnc5c4)c(C(N)=O)c3C2)cc1` [Compound 309, 2-(7-Chlorobenzo[d]oxazol-5-yl)-N^5-(4-cyanophenyl)-6,7-dihydropyrazolo[1,5-a]pyrazine-3,5(4H)-dicarboxamide], the IC50 was 0.01 to 10 nM.

With `N#Cc1ccc(NC(=O)N2CCn3nc(-c4ccc(C5CC5)c(Cl)c4)c(C(N)=O)c3C2)cc1` [Compound 258, 2-(3-Chloro-4-cyclopropylphenyl)-N^5-(4-cyanophenyl)-6,7-dihydropyrazolo[1,5-a]pyrazine-3,5(4H)-dicarboxamide], the IC50 lay within 0.01 to 10 nM.

On to `N#Cc1ccc(NC(=O)N2Cc3c(C(N)=O)c(-c4ccc(F)c(Cl)c4)nn3[C@H](C(F)F)C2)cc1` [Compound A20, (S)-2-(3-Chloro-4-fluorophenyl)-N^5-(4-cyanophenyl)-7-(difluoromethyl)-6,7-dihydropyrazolo[1,5-a]pyrazine-3,5(4H)-dicarboxamide], for which the IC50 is 0.01 to 10 nM.

With `NC(=O)c1c(-c2ccc(F)c(Cl)c2)nn2c1CN(C(=O)Nc1ccc3ccncc3c1)CC2` [Compound 196, 2-(3-Chloro-4-fluorophenyl)-N^5-(isoquinolin-7-yl)-6,7-dihydropyrazolo[1,5-a] pyrazine-3,5(4H)-dicarboxamide], the IC50 is 0.01 to 10 nM.

Turning to `Cc1cc(-c2nn3c(c2C(N)=O)CN(C(=O)Nc2ccc(C#N)c(C)c2)CC3)ccc1F` [Compound 239, N^5-(4-Cyano-3-methylphenyl)-2-(4-fluoro-3-methylphenyl)-6,7-dihydropyrazolo[1,5-a]pyrazine-3,5(4H)-dicarboxamide], the IC50 was in the range of 0.01 to 10 nM.

As for `Cc1cc(NC(=O)N2CCn3nc(-c4cc(Cl)cc(N(C)C)c4)c(C(N)=O)c3C2)ccc1C#N` [Compound 267, 2-(3-Chloro-5-(dimethylamino)phenyl)-N^5-(4-cyano-3-methylphenyl)-6,7-dihydropyrazolo[1,5-a] pyrazine-3,5(4H)-dicarboxamide], the IC50 was 0.01 to 10 nM.

Take `CN(C)c1cc(Cl)cc(-c2nn3c(c2C(N)=O)CN(C(=O)Nc2ccc(C#N)c(Cl)c2)CC3)c1` [Compound 268, N^5-(3-Chloro-4-cyanophenyl)-2-(3-chloro-5-(dimethyl-amino)phenyl)-6,7-dihydropyrazolo[1,5-a] pyrazine-3,5(4H)-dicarboxamide]: the IC50 fell in the range of 0.01 to 10 nM.

As for `N#Cc1ccc(NC(=O)N2CCn3nc(-c4cc(Cl)c5cncn5c4)c(C(N)=O)c3C2)cc1` [Compound 308, 2-(8-Chloroimidazo[1,5-a]pyridin-6-yl)-N-(4-cyanophenyl)-6,7-dihydropyrazolo[1,5-a]pyrazine-3,5(4H)-dicarboxamide], the IC50 was in the range of 0.01 to 10 nM.

For the compound `N#Cc1ccc(NC(=O)N2CCn3nc(-c4cc(Cl)c5[nH]ncc5c4)c(C(N)=O)c3C2)cc1` [Compound 315, 2-(7-Chloro-1H-indazol-5-yl)-N^5-(4-cyanophenyl)-6,7-dihydropyrazolo[1,5-a]pyrazine-3,5(4H)-dicarboxamide], the IC50 lay in the range of 0.01 to 10 nM.

On to `N#Cc1ccc(NC(=O)N2Cc3c(C(N)=O)c(-c4ccc(F)c(Cl)c4)nn3C(CF)C2)cc1Cl` (single isomer, unassigned) [Compound A15, N^5-(3-Chloro-4-cyanophenyl)-2-(3-chloro-4-fluorophenyl)-7-(fluoromethyl)-6,7-dihydropyrazolo[1,5-a]pyrazine-3,5(4H)-dicarboxamide], for which the IC50 was in the range of 0.01 to 10 nM.

Turning to `N#Cc1ccc(NC(=O)N2Cc3c(C(N)=O)c(-c4ccc(F)c(Cl)c4)nn3[C@@H](CF)C2)cc1F` [Compound A17, (R)-2-(3-Chloro-4-fluorophenyl)-N^5-(4-cyano-3-fluorophenyl)-7-(fluoromethyl)-6,7-dihydropyrazolo[1,5-a]pyrazine-3,5(4H)-dicarboxamide], the IC50 lay in the range of 0.01 to 10 nM.

Consider `N#Cc1ccc(NC(=O)N2Cc3c(C(N)=O)c(-c4ccc(F)c(Cl)c4)nn3[C@@H](C(F)F)C2)cc1` [Compound A21, (R)-2-(3-Chloro-4-fluorophenyl)-N^5-(4-cyanophenyl)-7-(difluoromethyl)-6,7-dihydropyrazolo[1,5-a]pyrazine-3,5(4H)-dicarboxamide], for which the IC50 was in the range of 0.01 to 10 nM.

Turning to `CN(C)c1cc(Cl)cc(-c2nn3c(c2C(N)=O)CN(C(=O)Nc2ccc(C#N)cc2)CC3)c1` [Compound 265, 2-(3-Chloro-5-(dimethylamino)phenyl)-N^5-(4-cyanophenyl)-6,7-dihydropyrazolo[1,5-a]pyrazine-3,5(4H)-dicarboxamide], the IC50 is 0.01 to 10 nM.

On to `N#CC1(c2ccc(NC(=O)N3CCn4nc(-c5ccc(F)c(Cl)c5)c(C(N)=O)c4C3)cc2)CC1` [Compound A54, 2-(3-Chloro-4-fluorophenyl)-N^5-(4-(1-cyanocyclopropyl)phenyl)-6,7-dihydropyrazolo[1,5-a]pyrazine-3,5(4H)-dicarboxamide], for which the IC50 lay within 0.01 to 10 nM.

As to `N#Cc1ccc(NC(=O)N2CCn3nc(-c4cnc(F)c(Cl)c4)c(C(N)=O)c3C2)cc1F` [Compound 295, 2-(5-Chloro-6-fluoropyridin-3-yl)-N^5-(4-cyano-3-fluorophenyl)-6,7-dihydropyrazolo[1,5-a] pyrazine-3,5(4H)-dicarboxamide], the IC50 is 0.01 to 10 nM.

`CC1CN(C(N)=O)Cc2c(C(=O)NC(C)(C)C)c(-c3ccc(Cl)c(Cl)c3)nn21` (centres unmarked) [Compound A33, N-(tert-Butyl)-2-(3,4-dichlorophenyl)-7-methyl-6,7-dihydropyrazolo[1,5-a]pyrazine-3,5(4H)-dicarboxamide]: the IC50 was in the range of 0.01 to 10 nM.

As for `Cc1cc(C)cc(-c2nn3c(c2C(N)=O)CN(C(=O)NC(C)(C)C)CC3)c1` [Compound 128, N^5-(tert-Butyl)-2-(3,5-dimethylphenyl)-6,7-dihydropyrazolo[1,5-a]pyrazine-3,5(4H)-dicarboxamide], the IC50 lay in the range of 0.01 to 10 nM.

The same test, now with this note: CK1ε (IC50, nM).
For the compound `CCC1CN(C(=O)Nc2ccc(C#N)cc2)Cc2c(C(N)=O)c(-c3ccc(F)c(Cl)c3)nn21` (single isomer, unassigned) [Compound A68, 2-(3-Chloro-4-fluorophenyl)-N^5-(4-cyanophenyl)-7-ethyl-6,7-dihydropyrazolo[1,5-a]pyrazine-3,5(4H)-dicarboxamide], the IC50 fell in the range of 0.01 to 10 nM.

Staying with this test, now noted: read-out: CK1ε (IC50).
In the case of `N#Cc1ccc(NC(=O)N2CCn3nc(-c4cnc(F)c(Cl)c4)c(C(N)=O)c3C2)cc1Cl` [Compound 296, N^5-(3-Chloro-4-cyanophenyl)-2-(5-chloro-6-fluoropyridin-3-yl)-6,7-dihydropyrazolo[1,5-a] pyrazine-3,5(4H)-dicarboxamide], the IC50 was 0.01 to 10 nM.

Consider `CCC1CN(C(=O)Nc2ccc(C#N)cc2)Cc2c(C(N)=O)c(-c3ccc(F)c(Cl)c3)nn21` (single isomer, unassigned) [Compound A69, 2-(3-Chloro-4-fluorophenyl)-N^5-(4-cyanophenyl)-7-ethyl-6,7-dihydropyrazolo[1,5-a]pyrazine-3,5(4H)-dicarboxamide], for which the IC50 lay within 0.01 to 10 nM.
